How the values were obtained:
[1] = target: human E3 ligase component cereblon (CRBN) (Homo sapiens (Human), UniProt Q96SW2); assay: Cereblon (CRBN) target engagement, NanoBRET TE Intracellular E3 Ligase Assay in transfected HEK-293T cells; settings: read-out: CRBN Binding EC50
Method in brief: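 Live HEK-293T cells co-transfected overnight with NanoLuc-CRBN (CRBN at NanoLuc C-terminus) and DDB1 vectors (10:990 ng) were given CRBN tracer and an 11-point compound series for 2 h at 37° C. BRET read at 450/610 nm with extracellular NanoLuc inhibitor present; IC50 from four-parameter logistic fit.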

IKZF2 (Helios) = assay: IKZF2 reporter degradation assay (HEK 293T IKZF2-mNeonGreen reporter cell line); format: cell-based, human; settings: 1 μM compound, 24 hour incubation, HEK 293T IKZF2-mNeonGreen reporter
Method in brief: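 HEK 293T lines stably expressing each IKZF-GGGGS×3-mNeonGreen-P2A-mScarlet reporter, 4000 cells/well in FluoroBrite medium, treated with compound (≤0.5% DMSO) for 24 h at 37 °C. Imaging measured percent mNeonGreen-positive cells, with mScarlet used for segmentation; DC50 from four-parameter logistic fit.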

human E3 ligase component cereblon (CRBN), sequence (Q96SW2 whole entry): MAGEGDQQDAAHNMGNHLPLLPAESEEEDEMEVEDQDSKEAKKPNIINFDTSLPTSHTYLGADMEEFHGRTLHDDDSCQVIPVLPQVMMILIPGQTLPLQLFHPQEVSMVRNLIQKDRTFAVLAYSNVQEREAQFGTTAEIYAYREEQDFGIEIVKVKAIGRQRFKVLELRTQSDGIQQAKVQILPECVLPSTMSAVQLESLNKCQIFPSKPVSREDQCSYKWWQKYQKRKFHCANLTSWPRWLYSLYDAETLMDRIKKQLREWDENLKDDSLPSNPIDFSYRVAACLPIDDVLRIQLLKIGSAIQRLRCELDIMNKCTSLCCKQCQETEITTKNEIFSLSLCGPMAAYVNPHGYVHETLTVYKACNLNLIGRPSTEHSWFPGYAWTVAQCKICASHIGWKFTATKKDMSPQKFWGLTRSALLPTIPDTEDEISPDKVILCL
human E3 ligase component cereblon (CRBN), sequence (Q16531 whole entry partner): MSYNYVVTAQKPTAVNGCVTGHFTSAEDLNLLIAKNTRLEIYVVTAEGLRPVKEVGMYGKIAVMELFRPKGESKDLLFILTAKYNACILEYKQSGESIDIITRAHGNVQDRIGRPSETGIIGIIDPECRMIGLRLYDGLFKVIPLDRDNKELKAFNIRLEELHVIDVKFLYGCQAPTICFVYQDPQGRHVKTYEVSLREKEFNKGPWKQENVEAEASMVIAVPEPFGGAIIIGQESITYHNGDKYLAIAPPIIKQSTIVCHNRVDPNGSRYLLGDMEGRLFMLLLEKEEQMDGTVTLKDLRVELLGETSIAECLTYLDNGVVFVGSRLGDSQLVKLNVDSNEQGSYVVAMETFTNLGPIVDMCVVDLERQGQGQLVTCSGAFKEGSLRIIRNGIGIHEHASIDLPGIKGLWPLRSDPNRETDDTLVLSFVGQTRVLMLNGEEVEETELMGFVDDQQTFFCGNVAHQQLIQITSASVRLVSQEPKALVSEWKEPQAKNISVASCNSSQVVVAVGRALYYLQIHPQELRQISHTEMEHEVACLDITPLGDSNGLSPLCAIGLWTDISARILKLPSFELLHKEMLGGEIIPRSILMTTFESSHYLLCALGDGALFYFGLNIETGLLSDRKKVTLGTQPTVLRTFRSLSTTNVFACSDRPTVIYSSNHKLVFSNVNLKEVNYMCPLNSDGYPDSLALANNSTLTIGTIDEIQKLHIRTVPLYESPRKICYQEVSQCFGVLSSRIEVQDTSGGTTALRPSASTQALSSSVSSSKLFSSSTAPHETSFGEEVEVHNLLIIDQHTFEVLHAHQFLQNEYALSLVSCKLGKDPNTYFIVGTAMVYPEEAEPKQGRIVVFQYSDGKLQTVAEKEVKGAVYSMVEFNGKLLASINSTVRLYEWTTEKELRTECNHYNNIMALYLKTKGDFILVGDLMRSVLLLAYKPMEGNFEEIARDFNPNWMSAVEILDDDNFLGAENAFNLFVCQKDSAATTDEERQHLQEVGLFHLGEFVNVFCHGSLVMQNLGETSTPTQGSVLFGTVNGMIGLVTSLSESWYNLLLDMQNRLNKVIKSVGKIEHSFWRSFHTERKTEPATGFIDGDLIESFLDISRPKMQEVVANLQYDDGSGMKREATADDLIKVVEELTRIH

EC50 [1] [nM] | Structure (SMILES) | IKZF2 % Degradation @ 1 μM (IKZF2 (Helios)) [%]
65 | N#Cc1cc(F)ccc1C1CN([C@H]2CCCC[C@@H]2Oc2ccc3c(c2)CN(C2CCC(=O)NC2=O)C3=O)C1 (single isomer, unassigned) [Compound 44] | 85.6
32 | N#Cc1ccc(C2CN(C3CCCC3Oc3ccc4c(c3)CN(C3CCC(=O)NC3=O)C4=O)C2)cc1 (stereo not drawn) [Compound 98, 4-(1-(2-((2-(2,6-dioxopiperidin-3-yl)-1-oxoisoindolin-5-yl)oxy)cyclopentyl)azetidin-3-yl)benzonitrile] | <15
8 | N#Cc1cc(Cl)ccc1C1CN([C@H]2CCCC[C@@H]2Oc2ccc3c(c2)CN(C2CCC(=O)NC2=O)C3=O)C1 (single isomer, unassigned) [Compound 39] | 84.6
11 | N#Cc1cc(Cl)ccc1C1CN([C@H]2CCCC[C@H]2Oc2ccc3c(c2)CN(C2CCC(=O)NC2=O)C3=O)C1 (stereo partly drawn) [Compound 40, 5-chloro-2-(1-((1S,2R)-2-((2-(2,6-dioxopiperidin-3-yl)-1-oxoisoindolin-5-yl)oxy)cyclohexyl)azetidin-3-yl)benzonitrile] | <15
11 | O=C1CCC(N2Cc3cc(O[C@H]4CCC[C@@H]4N4CC(c5ccccc5)C4)ccc3C2=O)C(=O)N1 (stereo partly drawn) [Compound 120, 3-(1-oxo-5-(((1S,2S)-2-(3-phenylazetidin-1-yl)cyclopentyl)oxy)isoindolin-2-yl)piperidine-2,6-dione] | 78.8
9 | O=C1CCC(N2Cc3cc(O[C@H]4CCCC[C@@H]4N4CC(c5ccc(OC(F)F)cc5)C4)ccc3C2=O)C(=O)N1 (stereo partly drawn) [Compound 81, 3-(5-(((1S,2S)-2-(3-(4-(difluoromethoxy)phenyl)azetidin-1-yl)cyclohexyl)oxy)-1-oxoisoindolin-2-yl)piperidine-2,6-dione] | 77.6
6 | O=C1CCC(N2Cc3cc(O[C@H]4CCC[C@@H]4N4CCC(c5ccccc5)C4)ccc3C2=O)C(=O)N1 (stereo partly drawn) [Compound 121, 3-(1-oxo-5-(((1S,2S)-2-(3-phenylpyrrolidin-1-yl)cyclopentyl)oxy)isoindolin-2-yl)piperidine-2,6-dione] | 75.9
239 | O=C1CCC(N2Cc3cc(O[C@H]4CCCC[C@H]4N4CCC4c4ccccc4)ccc3C2=O)C(=O)N1 (stereo partly drawn) [Compound 56, 3-(1-oxo-5-(((1S,2R)-2-(2-phenylazetidin-1-yl)cyclohexyl)oxy)isoindolin-2-yl)piperidine-2,6-dione] | <15
45 | N#Cc1ccc(C2CN([C@H]3CCCC[C@@H]3Oc3ccc4c(c3)CN(C3CCC(=O)NC3=O)C4=O)C2)c(Cl)c1 (single isomer, unassigned) [Compound 48] | 78.9
6 | O=C1CCC(N2Cc3cc(O[C@H]4CCCC[C@@H]4N4CC(c5ccc(F)cc5F)C4)ccc3C2=O)C(=O)N1 (stereo partly drawn) [Compound 57, 3-(5-(((1S,2S)-2-(3-(2,4-difluorophenyl)azetidin-1-yl)cyclohexyl)oxy)-1-oxoisoindolin-2-yl)piperidine-2,6-dione] | 85.8
36 | N#Cc1cc(Cl)ccc1C1CN([C@H]2CCC[C@@H]2Oc2ccc3c(c2)CN(C2CCC(=O)NC2=O)C3=O)C1 (mixture of isomers) [Compound 83, Rac-5-chloro-2-(1-((trans)-2-((2-(2,6-dioxopiperidin-3-yl)-1-oxoisoindolin-5-yl)oxy)cyclopentyl)azetidin-3-yl)benzonitrile] | 48.8
19 | N#Cc1ccc(C2CN(C3CCCC3Oc3ccc4c(c3)CN(C3CCC(=O)NC3=O)C4=O)C2)cc1F (stereo not drawn) [Compound 110, 4-(1-(2-((2-(2,6-dioxopiperidin-3-yl)-1-oxoisoindolin-5-yl)oxy)cyclopentyl)azetidin-3-yl)-2-fluorobenzonitrile] | 48.8
89 | O=C1CCC(N2Cc3cc(O[C@@H]4CCCC[C@H]4N4CCC4c4ccccc4)ccc3C2=O)C(=O)N1 (stereo partly drawn) [Compound 54, 3-(1-oxo-5-(((1R,2R)-2-(2-phenylazetidin-1-yl)cyclohexyl)oxy)isoindolin-2-yl)piperidine-2,6-dione] | <15
58 | N#Cc1ccccc1C1CN([C@H]2CCCC[C@@H]2Oc2ccc3c(c2)CN(C2CCC(=O)NC2=O)C3=O)C1 (mixture of isomers) [Compound 108, Rac-2-(1-((trans)-2-((2-(2,6-dioxopiperidin-3-yl)-1-oxoisoindolin-5-yl)oxy)cyclohexyl)azetidin-3-yl)benzonitrile] | 71.3
17 | O=C1CCC(N2Cc3cc(OC4CCCCC4N4CC(c5cccc(OC(F)(F)F)c5)C4)ccc3C2=O)C(=O)N1 (stereo not drawn) [Compound 67, 3-(1-oxo-5-((2-(3-(3-(trifluoromethoxy)phenyl)azetidin-1-yl)cyclohexyl)oxy)isoindolin-2-yl)piperidine-2,6-dione] | 37.8
14 | N#Cc1cc(Cl)ccc1C1CN([C@H]2CCC[C@H]2Oc2ccc3c(c2)CN(C2CCC(=O)NC2=O)C3=O)C1 (mixture of isomers) [Compound 84, Rac-5-chloro-2-(1-((cis)-2-((2-(2,6-dioxopiperidin-3-yl)-1-oxoisoindolin-5-yl)oxy)cyclopentyl)azetidin-3-yl)benzonitrile] | <15
11 | O=C1CCC(N2Cc3cc(O[C@H]4CCCC[C@@H]4N4CC(c5ccc(F)cc5)C4)ccc3C2=O)C(=O)N1 (stereo partly drawn) [Compound 123, 3-(5-(((1S,2S)-2-(3-(4-fluorophenyl)azetidin-1-yl)cyclohexyl)oxy)-1-oxoisoindolin-2-yl)piperidine-2,6-dione] | 74.4
12 | O=C1CCC(N2Cc3cc(O[C@H]4CCCC[C@@H]4N4CCC(c5ccccc5)CC4)ccc3C2=O)C(=O)N1 (stereo partly drawn) [Compound 79, 3-(1-oxo-5-(((1S,2S)-2-(4-phenylpiperidin-1-yl)cyclohexyl)oxy)isoindolin-2-yl)piperidine-2,6-dione] | <15
43 | O=C1CCC(N2Cc3c(ccc(O[C@H]4CCCC[C@@H]4N4CC(c5ccccc5)C4)c3Cl)C2=O)C(=O)N1 (single isomer, unassigned) [Compound 42] | <15
24 | N#Cc1ccc(C2CN([C@H]3CCCC[C@@H]3Oc3ccc4c(c3)CN(C3CCC(=O)NC3=O)C4=O)C2)c(F)c1 (mixture of isomers) [Compound 116, Rac-4-(1-((trans)-2-((2-(2,6-dioxopiperidin-3-yl)-1-oxoisoindolin-5-yl)oxy)cyclohexyl)azetidin-3-yl)-3-fluorobenzonitrile] | <15
158 | O=C1CCC(N2Cc3cc(O[C@H]4CCCC[C@@H]4N4CCC4c4ccccc4)ccc3C2=O)C(=O)N1 (stereo partly drawn) [Compound 55, 3-(1-oxo-5-(((1S,2S)-2-(2-phenylazetidin-1-yl)cyclohexyl)oxy)isoindolin-2-yl)piperidine-2,6-dione] | 38.1
11 | O=C1CCC(N2Cc3cc(O[C@@H]4CCCC[C@@H]4N4CC(c5ccc(C(F)(F)F)cc5)C4)ccc3C2=O)C(=O)N1 (stereo partly drawn) [Compound 59, 3-(1-oxo-5-(((1R,2S)-2-(3-(4-(trifluoromethyl)phenyl)azetidin-1-yl)cyclohexyl)oxy)isoindolin-2-yl)piperidine-2,6-dione] | 32.7
5 | N#Cc1ccc(C2CN([C@H]3CCCC[C@@H]3Oc3ccc4c(c3)CN(C3CCC(=O)NC3=O)C4=O)C2)c(Cl)c1 (single isomer, unassigned) [Compound 47] | 86.7
42 | N#Cc1cc(F)ccc1C1CN([C@@H]2CCCC[C@H]2Oc2ccc3c(c2)CN(C2CCC(=O)NC2=O)C3=O)C1 (single isomer, unassigned) [Compound 43] | <15
